According to US11001591B2, “TRAF 6 inhibitors” (HELMHOLTZ ZENTRUM MUENCHEN—DEUTSCHES FORSCHUNGSZENTRUM FÜR …, priority 2016, dated 2021):

Key:
MDM2 = molecular target: T1, MDM2 (Homo sapiens, UniProt Q00987); experiment: In vitro ubiquitination assay, MDM2; assay type: biochemical; settings: K48 chain formation
T1 construct: purchased Boston Biochem one of K-102, K-260, K-200B, K-220, K-240, K-270
Procedure: For analysis of clAP1, MDM2, TRIM63, RNF4, ITCH and E6AP mediated poly-ubiquitination, the respective ubiquitin ligase kit from Boston Biochem (K-102, K-260, K-200B, K-220, K-240 and K-270) was used. Here, reaction buffer, E1, E2 and E3 enzyme (and p53 substrate in case of MDM2) were mixed and pre-incubated with compound or DMSO for 5 minutes at room temperature before adding Mg^2+-ATP and mono-ubiquitin for reaction start. Ubiquitination was visualized by Western Blot analyses.

Plasma stability = assay type: in vitro ADME
Procedure: All ADME (plasma stability, plasma protein binding, microsomal stability, Log D, Caco-2 assay, CYP450 inhibition and hERG predictor assay) as well as pharmacokinetic studies (Tmax, Cmax, AUC0-240 min, Mean Residence Time, Elimination half life, Elimination rate constant, Volume of Distribution and Clearance) of C25-140 (compound 3) were conducted by Bienta Enamine Biology Services of Bienta/Enamine Ltd.

[1] = tested on: Jurkat T-cells and U2OS cells; experiment: Cell cycle assessment (propidium iodide); assay type: cell-based; settings: 24 hours and 72 hours treatment
Procedure: For cell cycle staining, cells were seeded at 2×10^5 cells per sample and treated with compound or DMSO. After the indicated incubation time (24 or 72 hours), cells were fixed in 100% Ethanol and subsequently stained with the Propidium Iodide staining solution (0.1% Triton X-100; 20 μg/ml Propidium Iodide; 200 μg/ml RNAse A in PBS) for 40 min in the dark. The Propidium Iodide fluorescence was collected using the Attune Flow Cytometer (Thermo Fisher Scientific). Analysis was performed using the Single Cell analysis software FlowJo.

IL-2 and TNFα = experiment: mRNA expression of TCR target genes in Jurkat T-cells; assay type: cell-based, human; settings: PMA/Ionomycin
Procedure: For MEF cells, 1.2×10^5 cells per sample were seeded, treated with compound for 6 hours and stimulated with either IL-1β or TNFα for 60 minutes. Jurkat T-cells and primary mouse CD4^+ T-cells were seeded at 2×10^5 cells per sample, also treated with compound for 6 hours and stimulated with PMA/lonomycin for 3 hours. RNA was isolated according to the manufacturer's protocol of the Qiagen RNeasy Kit (MEF cells) or the STRATEC INVITRAP® SPIN UNIVERSAL RNA MINI KIT (Jurkat T-cells). The isolation of mRNA from […] white adipose tissue from DIO mice was performed using TRIzol® Reagent according to manufacturer's instruction. To clear the isolated RNA from genomic DNA, samples (up to 5 μg RNA) were treated with RQ1 RNase-Free DNaseI (Promega) as described in the technical manual. For the reverse transcription of RNA into cDNA, the DNaseI digested RNA samples were processed using the SuperScript III First Strand cDNA Synthesis System (Invitrogen/ThermoFisher Scientific) following the manufacturer's protocol. […] For quantification of cDNA in the samples, the LightCylcer480 (Roche) and the KAPA SYBR FAST qPCR Kit were used. For relative quantification, the ΔΔCp method first described by Pfaffl (Pfaffl, M. W., A new mathematical model for relative quantification in real-time RT-PCR. Nucleic Acids Res, 2001. 29(9): p. e45) was applied.

[2] = tested on: 78 oncological cell lines and control cell lines HS-5 and MCF 10A; experiment: Omniscreen cancer cell line panel, CellTiter-Glo; assay type: cell-based; settings: nine concentrations, top 80 μM, 72 hours
Procedure: The effect of C25-140 on cell viability of 80 cancer cell lines using the CellTiter-Glo luminescent cell viability assay was conducted at CrownBioscience Inc. at the testing facility in Beijing. Here, 80 selected cell lines were cultured in media supplemented with 10-15% FBS, in the temperature of 37° C., 5% CO2 and 95% humidity. Culture medium was purchased from GIBCO or Sigma, USA. The cells were treated with C25-140 in 9 dose levels starting at 80 μM with 3.16-fold serial dilutions. Cisplatin served as a reference control and started with a top working concentration of 100 μM. Test samples were incubated for 72 hours and cell viability was measured by the CellTiter-Glo assay.

IKK kinase activity = experiment: IKK kinase assay in Jurkat T-cells; assay type: cell-based, human; settings: PMA/Ionomycin
Procedure: For MEF cells, 5.5×10^5 cells were seeded, then treated with compound for 6 hours and eventually stimulated with IL-1β or TNFα for 8 minutes. 1×10^6 Jurkat T-cells were treated with compound for 6 hours and finally stimulated with PMA (400 ng/ml) and lonomycin (600 ng/ml) for 8 minutes. After cell lysis in Co-IP lysis buffer (150 mM NaCl; 25 mM Hepes (pH 7.5); 0.2% NP-40; 1 mM Glycerol; 10 mM NaF; 8 mM β-Glycerophosphat; 1 mM DTT; 300 μM Sodium-vanadate; complete protease inhibitor), input samples were taken and the supernatant was then incubated with 6 μL IKKγ antibody FL-419 (Santa Cruz Biotechnology). Upon incubation with Protein-G-Sepharose beads (GE Healthcare), beads were washed in Co-IP wash buffer (150 mM NaCl; 25 mM Hepes (pH 7.5); 0.2% NP-40; 1 mM Glycerol) and transferred into kinase reaction buffer ([…] HEPES pH7.9; 10 mM MgCl2; 20 μM ATP; 20 mM β-Glycerophosphat; 200 μM Sodium-Vanadate; 1 mM DTT) supplemented with […] GST-IκBα (1-53) and 0.5 μL ^32P-γ-ATP. After 30 minutes incubation at 37° C., reaction was stopped and analyzed by autoradiography as well as Western Blot after separation on SDS-PAGE.

[3] = tested on: MEF, HepG2 and Jurkat cells; experiment: Cell viability, CellTiter-Glo 2.0; assay type: cell-based
Procedure: For cell viability experiments using the CellTiter-Glo® 2.0 system (Promega), MEF cells (1.2×10^3 cells/well), HepG2 cells (4×10^3 cells/well) and Jurkat T-cells (5×10^3 cells/well) were seeded in 384 well plates. After 18 hours, cells were treated with compounds using the Sciclone G3 automation system. After 6 or 24 hours incubation, the luciferase measurement was performed according to the manufacturer's manual.

T1 sequence (Q00987 whole entry): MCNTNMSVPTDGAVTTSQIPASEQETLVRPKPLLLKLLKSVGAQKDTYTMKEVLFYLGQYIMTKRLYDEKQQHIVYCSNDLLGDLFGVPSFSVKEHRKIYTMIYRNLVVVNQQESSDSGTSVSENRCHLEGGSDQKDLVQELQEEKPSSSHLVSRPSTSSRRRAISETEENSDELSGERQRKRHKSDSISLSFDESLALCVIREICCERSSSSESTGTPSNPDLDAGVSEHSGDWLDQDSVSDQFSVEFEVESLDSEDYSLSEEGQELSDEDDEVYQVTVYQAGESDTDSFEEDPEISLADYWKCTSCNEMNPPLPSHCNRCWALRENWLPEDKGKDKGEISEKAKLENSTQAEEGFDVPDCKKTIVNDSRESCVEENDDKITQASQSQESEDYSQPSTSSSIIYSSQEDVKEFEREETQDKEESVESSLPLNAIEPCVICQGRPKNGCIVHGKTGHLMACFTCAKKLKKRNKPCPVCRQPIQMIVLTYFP

- p53 ubiquitination by MDM2 (MDM2): not affected
- plasma stability (Plasma stability): stable
- cell cycle progression [1]: not impaired
SMILES: Cc1nn(-c2ccc3nnc(C)n3n2)c(C)c1CCC(=O)N1CCC(Cc2ccccc2)CC1 [Compound 3, 1-(4-benzylpiperidin-1-yl)-3-(3,5-dimethyl-1-(3-methyl-[1,2,4]triazolo[4,3-b]pyridazin-6-yl)-1H-pyrazol-4-yl)propan-1-one]
- mRNA levels of IL-2 and TNFα (IL-2 and TNFα): dose-dependently decreased
- viability of cancer cell lines [2]: major effect is on cancer cells of blood origin
- viability of control cell lines HS-5 and MCF 10A [2]: not affected at all
- IKK kinase activity (IKK kinase activity): diminished
- cell viability at highest dose ([3]; 100 μM, 24 hours): toxicity is noticeable
- metabolic activity and cell viability ([3]; up to 50 μM, 24 hours incubation, MEF, HepG2, Jurkat): does not considerably affect
